{"source": "patent US4618598A", "about": "“Method of regulating hormone function or release” (Duke University, priority 1982, dated 1986)", "key": {"[1]": {"tested_on": "pituitary cell cultures", "conditions": "for effect on conjugate-stimulated LH release: Example 4, 2 mM EGTA (1.25 mM extracellular calcium), five micromolar Pimozide; for effect on LH release stimulated by dimer plus antibody: Example 7, 5 μM Pimozide or 2 mM EGTA, all titers, 1.5×10^-11 M dimer", "protocol": "(§1) Luteinizing hormone release from pituitary cell cultures is dependent upon the binding of the gonadotropin releasing hormone to its specific cell surface receptor. […] In FIG. 2 the antagonist activity of GnRH-Ant was measured in a cell culture bioassay. Two day pituitary cell cultures were incubated with 10^-8 M, 10^-9 M, or no GnRH at the indicated concentration of antagonist. After the 5 h incubation period, the medium was assayed for LH by RIA using rat LH antisera (LHS-4), highly purified rat LH for labeling (LH I-4), and rat LH standard (LH-RP-1) which were made available by a grant from the NIAMDD Hormone Distribution Office (prepared by Dr. A. Parlow, Torrance, CA.). The assay was performed as described below, except that second antibody was used to separate the bound and free [^ 125 -I]-LH.\nCell cultures were prepared, by collagenase-hyaluronidase dispersion of pituitaries from 25-day-old female weanling rats. The cultures were then incubated for 2 days at 37 C. in culture plates. […] After the culture period, the cells were washed free of debris and sera with medium 199 containing 0.3% bovine serum albumin (Cohn fraction V; 199/BSA) and incubated with the indicated compounds. Medium 199 normally contains 1 mM Ca^2+. Cells were incubated in 1.0 ml medium for 3 h. After the incubation period, the supernatant fraction was removed from the cells (attached to the culture dish) with a Pasteur pipette and assayed for LH by RIA employing rat LH antisera (LHS-5), highly purified rat LH for labeling (LH-I-6), and rat LH standard (LH-RP-1), all of which were made available by the NIAMMD Hormone Distribution Office and were prepared by Dr. A. Parlow (Torrance, CA). The assay was performed, using immobile protein A to separate the bound and free [^125 I]LH. […] LH release was normalized by DNA determination in order to correct for slight differences in cell numbers in different assay wells.\nRabbit anti-D-Lys^6 -GnRH (antiserum No. 5111 prepared by immunization with D-Lys^6 coupled to bovine serum albumin (BSA) with glutaraldehyde) was added without additional purification in an amount sufficient to bind 8-10% of the dimer. The antibody was added in a final volume of 50 μl (with Medium 199 containing 0.3% BSA and 2 mg NaN3). The reaction ws allowed to proceed 10 h at room temperature and then 2 days at 10° C. Immediately before the cell bioassay, the solution was applied to a 12 ml calibrated G-75 column (10×260 mm) equilibrated in 199/BSA. Twenty drop fractions (about 300 μl) were collected and brought to 1.0 ml with 199/BSA. […] Where monovalent antibody is specified, the reduced pepsin fragment of antibody (No. 5111) was substituted for intact antibody in the conjugation described above. In this case ammonium sulfate fractionated IgG was dissolved in 50 mM acetate buffer, pH 4.5 and digested with pepsin (Worthington Biochemical Corp.) at an enzyme:substrate ratio of 1:100 for 50 min at […]. Digestion was stopped by neutralization with 1M Tris-HCL, pH 8.0 and 0.1N NaOH. Precipitated material was removed by centrifugation and 2-mercaptoethanol added to the supernatant at a final concentration of 0.75 mM. The solution was maintained at room temperature for 1 h, then cooled in ice cold water."}, "[2]": {"biological_target": "T1, gonadotropin releasing hormone receptor (Rattus norvegicus, UniProt P30969)", "T1 construct": "gonadotropin releasing hormone sites on a plasma membrane fraction from the rat pituitary; from tissue; host or cells: rat pituitary plasma membrane fraction", "T1 sequence (P30969 1-327)": "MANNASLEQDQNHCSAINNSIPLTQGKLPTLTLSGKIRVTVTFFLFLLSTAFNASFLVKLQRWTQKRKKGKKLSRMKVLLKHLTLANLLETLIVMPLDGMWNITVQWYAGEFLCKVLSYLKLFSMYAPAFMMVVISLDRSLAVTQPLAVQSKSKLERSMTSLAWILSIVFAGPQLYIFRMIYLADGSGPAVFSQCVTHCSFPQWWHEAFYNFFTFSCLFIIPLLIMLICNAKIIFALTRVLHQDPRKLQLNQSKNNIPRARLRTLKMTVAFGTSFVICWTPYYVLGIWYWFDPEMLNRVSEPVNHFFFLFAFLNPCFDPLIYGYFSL", "assay": "Competitive binding against [125-I] Buserelin on pituitary plasma membrane fraction", "description": "[125-I]-Tyr^5 -D-ser(tert-butyl)^6 -desGly^10 -Pro^9 ethylamid-GnRH ([125-I] Buserelin, Hoechst Pharmaceuticals) binds to the gonadotropin releasing hormone receptor sites on the plasma membrane. The ability to compete with the iodine labelled Buserelin indicates the relative affinity for the receptor. […] The data are expressed in terms of equivalents of releasing hormone analogue showing the radioligand bound in the presence of the indicated analogue concentration (B) compared to that bound in the absence of added analog (Bo).\nThe binding assay was conducted in polypropylene microfuge tubes which were precoated overnight with 1% BSA. The assay contained approximately 20,000 cpm of ^125 I-labeled Buserelin and 30 μg of membrane protein, in the presence or absence of 10^-5 M GnRH. In some competition experiments, the amount of added GnRH was altered as indicated. To determine the specificity of binding, des-pGlu^1 -GnRH (Bachem, Torrance, Calif.), D-Ala^6 -GnRH (Peninsula Laboratories, Inc., San Carlos, Calif.), D-Phe^2 -D-Ala^6 -GnRH (Wyeth Laboratories, Philadelphia, Pa.) TRH (Peninsula Laboratories), arg^8 -vasopressin (Calbiochem, San Diego, Calif.), or somatostatin (Beckman Instruments, Fullerton, Calif.) were added at the indicated concentrations. The final assay volume was 500 μl adjusted with 10 mM Tris-0.1% BSA. Following a 2-hr incubation on ice, bound and free hormone were separated by centrifugation. (Eppendorf microfuge, 12,800×g, 5 min) through 100 μl of 10% (w/v) sucrose. The tips of the tubes were cut off and radioactivity was determined by γ-spectroscopy. […] For some kinetic studies, bound hormone and free hormone were separated by the method of rapid filtration. Incubations were performed in triplicate. Specific binding was determined by subtracting nonspecific binding (in the presence of excess unlabeled GnRH) from total binding (no GnRH). Scatchard analysis of the binding data, using linear regression analysis to establish best-line fit, was used to determine the number and binding affinity of GnRH receptors. […]"}, "[3]": {"tested_on": "pituitary cell cultures", "assay": "Inhibition of GnRH-stimulated LH release from pituitary cell cultures (antagonist function)", "format": "cell-based, rat", "protocol": "as §1, with “FIG. 2 illustrates the ability of the gonadotropin releasing hormone antagonist to inhibit gonadotropin releasing hormone-stimulated LH release from pituitary cell cultures. Luteinizing” for “Luteinizing”, “receptor. The GnRH-antagonist binds to this receptor and blocks stimulation by GnRH.” for “receptor.”\nCell cultures were prepared, by collagenase-hyaluronidase dispersion of pituitaries from 25-day-old female weanling rats. The cultures were then incubated for 2 days at 37 C. in culture plates. […]"}}, "note": "pIC50: −log10 of the molar value.", "data": [{"molecule": "CC(C)C[C@H](NC(=O)[C@@H](CCCCNC(=O)CCC(=O)OCCOC(=O)CCC(=O)NCCCC[C@@H](NC(=O)[C@H](Cc1ccc(O)cc1)NC(=O)[C@H](CO)NC(=O)[C@H](Cc1c[nH]c2ccccc12)NC(=O)[C@H](Cc1c[nH]cn1)NC(=O)[C@@H]1CCC(=O)N1)C(=O)N[C@@H](CC(C)C)C(=O)N[C@@H](CCCNC(=N)N)C(=O)N1CCC[C@H]1C(=O)NCC(N)=O)NC(=O)[C@H](Cc1ccc(O)cc1)NC(=O)[C@H](CO)NC(=O)[C@H](Cc1c[nH]c2ccccc12)NC(=O)[C@H](Cc1c[nH]cn1)NC(=O)[C@@H]1CCC(=O)N1)C(=O)N[C@@H](CCCNC(=N)N)C(=O)N1CCC[C@H]1C(=O)NCC(N)=O", "note": "[(D-Lys^6 -GnRH)2 -EGS dimer]", "values": [{"measurement": "ED50 of LH release", "setting": "[1]", "value": 0.8, "unit": "nM"}]}, {"molecule": "CCNC(=O)[C@@H]1CCCN1C(=O)[C@H](CCCNC(=N)N)NC(=O)[C@H](CC(C)C)NC(=O)[C@@H](COC(C)(C)C)NC(=O)[C@H](Cc1ccc(O)cc1)NC(=O)[C@H](CO)NC(=O)[C@H](Cc1c[nH]c2ccccc12)NC(=O)[C@H](Cc1cnc[nH]1)NC(=O)[C@@H]1CCC(=O)N1", "note": "[Buserelin]", "values": [{"measurement": "pIC50", "setting": "[2]", "value": "~10.00"}]}, {"molecule": "CC(C)C[C@H](NC(=O)[C@@H](CCCCN)NC(=O)[C@H](Cc1ccc(O)cc1)NC(=O)[C@H](CO)NC(=O)[C@H](Cc1c[nH]c2ccccc12)NC(=O)[C@H](Cc1c[nH]cn1)NC(=O)[C@@H]1CCC(=O)N1)C(=O)N[C@@H](CCCNC(=N)N)C(=O)N1CCC[C@H]1C(=O)NCC(N)=O", "note": "[D-Lys^6 -GnRH, pyro glutamic acid-histidine-tryptophan-serine-tyrosine-D-lysine-leucine-arginine-proline-glycine-NH2]", "values": [{"measurement": "stimulated LH release", "setting": "[1]; Example 7, 10^-7 M", "value": "58±6", "unit": "ng/100 ng DNA"}]}, {"molecule": "O=C(O)CN(CCOCCOCCN(CC(=O)O)CC(=O)O)CC(=O)O", "note": "[EGTA]", "values": [{"measurement": "effect on conjugate-stimulated LH release", "setting": "[1]", "value": "blocked"}, {"measurement": "effect on LH release stimulated by dimer plus antibody", "setting": "[1]", "value": "diminished LH release to near basal"}]}, {"molecule": "O=c1[nH]c2ccccc2n1C1CCN(CCCC(c2ccc(F)cc2)c2ccc(F)cc2)CC1", "note": "[Pimozide]", "values": [{"measurement": "effect on conjugate-stimulated LH release", "setting": "[1]", "value": "blocked"}, {"measurement": "effect on LH release stimulated by dimer plus antibody", "setting": "[1]", "value": "diminished LH release to near basal"}]}, {"molecule": "D-pyroglumatic acid-D-phenylalanyl-D-tryptophanyl-D-lysyl-GnRH [GnRH-antagonist]", "values": [{"measurement": "binding affinity compared with natural GnRH", "setting": "[2]", "value": "higher affinity than natural sequence releasing hormone"}, {"measurement": "binding affinity relative to natural sequence gonadotropin releasing hormone", "setting": "[2]; printed as less affinity than natural GnRH, in equivalents of monomeric hormone", "value": "about 50 fold"}, {"measurement": "antagonist action on GnRH-stimulated LH release", "setting": "[3]", "value": "blocks the action of both 10^-8 molar and 10^-9 molar GnRH"}, {"measurement": "pIC50", "setting": "[3]; GnRH-stimulated (10^-9 molar), pituitary cultures, read-out: 50% inhibitory concentration (IC50) of GnRH-stimulated gonadotropin release", "value": 9.70}]}, {"molecule": "GnRH: natural sequence gonadotropin releasing hormone (QHWSYGLRPG; Gonadoliberin-1; UniProt P01148 24-33, looked up)", "values": [{"measurement": "LH release in response to GnRH", "setting": "[1]; Example 4, 10^-7 moles GnRH, five hour period", "value": "13.6±0.9 ng LH/20 μL of medium"}, {"measurement": "concentration at which maximum LH release is reached", "setting": "[1]; FIG. 6", "value": "10^-7 molar"}]}]}
